# Biological target: T1, human Y4 receptor (Homo sapiens, UniProt P50391)
# T1 construct: expressed in transfected cells
# Assay: NPY4 cAMP HTRF Agonist Assay (inhibitory cAMP assay, Gi activation by Y4 agonism)
# Assay type: cell-based
# Details: TABLE 2, R2 is Phenyl-CN; read-out: hY4 CAMP EC50
# How it was run: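 Y4 agonism read as lowered forskolin-stimulated cAMP (HTRF, 1 h detection at room temperature). Stable human Y4 CHO clone, 5000 cells/well, incubated 30 min at room temperature with compounds plus forskolin and IBMX in PBS.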
# T1 sequence (P50391 whole entry): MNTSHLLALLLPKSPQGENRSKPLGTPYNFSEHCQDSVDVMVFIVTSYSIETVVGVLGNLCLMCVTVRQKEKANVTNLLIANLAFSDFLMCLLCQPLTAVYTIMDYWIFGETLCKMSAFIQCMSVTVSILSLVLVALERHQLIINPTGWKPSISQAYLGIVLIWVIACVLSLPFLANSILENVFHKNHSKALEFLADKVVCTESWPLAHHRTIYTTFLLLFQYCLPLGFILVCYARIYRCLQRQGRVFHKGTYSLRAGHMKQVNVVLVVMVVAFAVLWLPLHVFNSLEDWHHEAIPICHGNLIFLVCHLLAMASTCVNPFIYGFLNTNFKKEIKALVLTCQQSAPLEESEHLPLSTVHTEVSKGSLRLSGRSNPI
row,Compound,EC50 [nM]
1,CS(=O)(=O)Nc1cccc(-c2ccnc(N[C@@H]3CCCC[C@H]3N[C@H]3CCCN(c4ccc(C#N)cc4)C3)c2)c1 [Example 242],3
2,N#Cc1ccc(N2CCC[C@H](N[C@@H]3CCCC[C@H]3Nc3cc(Cc4ccn[nH]4)ccn3)C2)cc1 [Example 214],964
3,N#Cc1ccc(N2C[C@@H]3C[C@H](N[C@@H]4CCCC[C@H]4Nc4ncc(-c5ccc(O)cc5)o4)[C@H]2C3)cc1 [Example 225],54
4,N#Cc1ccc(N2CCC[C@H](N[C@@H]3CCCC[C@H]3Nc3cc(-c4cccc(S(N)(=O)=O)c4)ccn3)C2)cc1 [Example 236],40
5,N#Cc1ccc(N2C[C@@H]3C[C@H](N[C@@H]4CCCC[C@H]4Nc4cc(-c5ccccc5)ccn4)[C@H]2C3)cc1 [Example 232],37
6,N#Cc1ccc(N2CCC[C@H](N[C@@H]3CCCC[C@H]3Nc3cc(-c4cncc5ccccc45)ccn3)C2)cc1 [Example 216],189

# Now from value to compound:
row,EC50 [nM],Compound
1,2,C[C@]1(N[C@@H]2CCCC[C@H]2Nc2ncc(-c3cccc(C(N)=O)c3)o2)CCCN(c2ccc(C#N)cc2)C1 [Example 199]
2,1,COC(=O)Nc1cccc(-c2cnc(N[C@@H]3CCCC[C@H]3N[C@H]3CCCN(c4ccc(C#N)cc4)C3)o2)c1 [Example 282]
3,0.2,CCOC(=O)Nc1cccc(-c2cnc(N[C@@H]3CCCC[C@H]3N[C@H]3CCCN(c4ccc(C#N)cc4)C3)o2)c1 [Example 205]

# Same assay, conditions: TABLE 4, R2 is Pyridinyl-CN; read-out: hY4 CAMP EC50
row,EC50 [nM],Compound
1,3,C[C@]1(N[C@@H]2CCCC[C@H]2Nc2ncc(-c3cccc(C(N)=O)c3)o2)CCCN(c2ccc(C#N)nc2)C1 [Example 304]
2,23,C[C@]1(N[C@@H]2CCCC[C@H]2Nc2ncc(-c3cccc(C(N)=O)c3)o2)CCCN(c2ccc(C#N)cn2)C1 [Example 298]
3,10,N#Cc1ccc(N2CCC[C@H](N[C@@H]3CCCCC3Nc3ncc(-c4ccc(OC(F)(F)F)cc4)o3)C2)cn1 (some centres unmarked) [Example 309]

# Same assay, conditions: TABLE 5, R2 is Pyridinyl-CF3; read-out: hY4 CAMP EC50
row,EC50 [nM],Compound
1,3,O=C(Nc1cccc(-c2cnc(N[C@@H]3CCCC[C@H]3N[C@H]3CCCN(c4ccc(C(F)(F)F)nc4)C3)o2)c1)C1CC1 [Example 334]
2,31,NC(=O)c1cccc(-c2cnc(N[C@@H]3CCCC[C@H]3N[C@H]3C[C@@H]4C[C@H]3N(c3ccc(C(F)(F)F)nc3)C4)o2)c1 [Example 328]
3,17,C[C@]1(N[C@@H]2CCCC[C@H]2Nc2cc(-c3cccc(C(N)=O)c3)ccn2)CCCN(c2ccc(C(F)(F)F)nc2)C1 [Example 323]

# Same assay, conditions: TABLE 7, R2 is Pyridinyl-oxadiazole-CH3; read-out: hY4 CAMP EC50
row,EC50 [nM],Compound
1,0.2,Cc1nc(-c2ccc(N3CCC[C@H](N[C@@H]4CCCC[C@H]4Nc4ncc(-c5cccc(C(N)=O)c5)o4)C3)nc2)no1 [Example 396]

# Same assay, conditions: human Y4 receptor, cAMP; read-out: hY4 CAMP EC50
row,Compound,EC50 [nM]
1,N#Cc1ncc(N2CCC[C@H](N[C@@H]3CCCC[C@H]3Nc3cc(-c4cc(F)c(F)cc4F)ccn3)C2)cn1 [Example 436],756
2,Cn1nnc(-c2ccc(N3CCC[C@H](N[C@@H]4CCCC[C@H]4Nc4cc(-c5ccc(OC(F)F)cc5)ccn4)C3)cc2)n1 [Example 503],150
3,N#Cc1ccnc(N[C@@H]2CCCC[C@H]2N[C@H]2CCCN(c3cnc(C(F)(F)F)nc3)C2)c1 [Example 426],600
4,Cn1nnc(-c2ccc(N3CCC[C@H](N[C@@H]4CCCC[C@H]4Nc4cc(-c5cccc(O)c5)ccn4)C3)cc2)n1 [Example 504],0.3
5,Cc1nnc(-c2ccc(N3CCCC(N[C@@H]4CCCC[C@H]4Nc4cc(-c5ccc(F)cc5)ccn4)C3)cc2)o1 (some centres unmarked) [Example 364],3
6,Cn1nnnc1-c1ccc(N2CCC[C@H](N[C@@H]3CCCC[C@H]3Nc3nccc(-c4ccccc4)n3)C2)cc1 [Example 502],98
7,Cc1nnc(-c2ccc(N3CCCC(N[C@@H]4CCCC[C@H]4Nc4cc(-c5ccc(O)cc5)ccn4)C3)cc2)o1 (some centres unmarked) [Example 370],3
8,Cc1nc2ccc(N3CCC[C@H](N[C@@H]4CCCC[C@H]4Nc4ncc(-c5cc(F)c(F)cc5F)o4)C3)cn2n1 [Example 497],46
9,COc1ccc(-c2ccnc(N[C@@H]3CCCC[C@H]3NC3CCCN(c4ccc(-c5nnc(C)o5)cc4)C3)c2)cc1 (some centres unmarked) [Example 366],323

# Continued, values first:
row,EC50 [nM],Compound
1,5,C[C@]1(N[C@@H]2CCCC[C@H]2Nc2ncc(-c3cccc(C(N)=O)c3)o2)CCCN(c2ccc(-c3noc(C4CC4)n3)nc2)C1 [Example 449]
2,333,N#Cc1ccc(N2CCCC(N[C@@H]3CCCC[C@H]3Nc3ncc(-c4cccc(C(N)=O)c4)o3)C2)nn1 (some centres unmarked) [Example 479]
3,9,C[C@]1(N[C@@H]2CCCC[C@H]2Nc2ncc(-c3cccc(C(N)=O)c3)o2)CCCN(c2cnc(C(F)(F)F)cn2)C1 [Example 472]
4,5,N#Cc1ncc(N2CCC[C@H](N[C@@H]3CCCC[C@H]3Nc3ncc(-c4cccc(C(N)=O)c4)o3)C2)cn1 [Example 438]
5,400,C[C@]1(N[C@@H]2CCCC[C@H]2Nc2cc(-c3cccc(C(N)=O)c3)ccn2)CCCN(c2ncc(C#N)cn2)C1 [Example 435]
6,66,FC(F)(F)c1ncc(N2CCC[C@H](N[C@@H]3CCCC[C@H]3Nc3ncc(-c4ccccc4)o3)C2)cn1 [Example 406]
7,5,NC(=O)c1cccc(-c2cnc(N[C@@H]3CCCC[C@H]3N[C@H]3CCCN(c4ncc(C(F)(F)F)cn4)C3)o2)c1 [Example 398]
8,1,COC(=O)Nc1cccc(-c2cnc(N[C@@H]3CCCC[C@H]3N[C@H]3CCCN(c4cnc(C(F)(F)F)cn4)C3)o2)c1 [Example 427]

# Same assay, conditions: human Y4 stable CHO clonal cells, forskolin + IBMX; read-out: NPY4 cAMP HTRF Agonist Assay EC50
row,Compound,EC50 [nM]
1,"COc1cccc(-c2ccnc(N[C@@H]3CCCC[C@H]3N[C@H]3CCCN(c4ccc([N+](=O)[O-])cc4)C3)n2)c1 [Example 30, (1R,2R)—N1-(4-(3-Methoxyphenyl)pyrimidin-2-yl)-N2-((S)-1-(4-nitrophenyl)piperidin-3-yl)cyclohexane-1,2-diamine]",203
2,"Cc1nnc(-c2ccc(N3CCC[C@H](N[C@@H]4CCCC[C@H]4Nc4nccc(-c5ccccc5)n4)C3)cc2)o1 [Example 84, (1R,2R)—N1-((S)-1-(4-(5-Methyl-1,3,4-oxadiazol-2-yl)phenyl)piperidin-3-yl)-N2-(4-phenylpyrimidin-2-yl)cyclohexane-1,2-diamine bis-trifluoroacetate]",9
3,"O=[N+]([O-])c1ccc(N2CC3CCC2[C@@H](N[C@@H]2CCCC[C@H]2Nc2ncc(-c4ccc(OC(F)(F)F)cc4)o2)C3)cc1 (stereo partly drawn) [Example 17, (1R,2R)—N1-((6S)-2-(4-Nitrophenyl)-2-azabicyclo[2.2.2]octan-6-yl)-N2-(5-(4-(trifluoromethoxy)phenyl)oxazol-2-yl)cyclohexane-1,2-diamine]",911
4,"O=[N+]([O-])c1ccc(N2CCC[C@H](N[C@@H]3CCCC[C@H]3Nc3nc4cc(OC(F)(F)F)ccc4o3)C2)cc1 [Example 4, (1R,2R)—N1-((S)-1-(4-Nitrophenyl)piperidin-3-yl)-N2-(5-(trifluoromethoxy)benzo[d]oxazol-2-yl)cyclohexane-1,2-diamine]",236
5,"Cc1nnc(-c2ccc(N3CCC[C@H](N[C@@H]4CCCC[C@H]4Nc4ncc(-c5ccccc5)o4)C3)cc2)o1 [Example 83, (1R,2R)—N1-((S)-1-(4-(5-Methyl-1,3,4-oxadiazol-2-yl)phenyl)piperidin-3-yl)-N2-(5-phenyloxazol-2-yl)cyclohexane-1,2-diamine bis-trifluoroacetate]",9

# Further lines, results first:
row,EC50 [nM],Compound
1,83,"FC(F)(F)c1cnc(N2CCC[C@H](N[C@@H]3CCCC[C@H]3Nc3ncc(-c4ccccc4)o3)C2)nc1 [Example 79, (1R,2R)—N1-(5-Phenyloxazol-2-yl)-N2-((S)-1-(5-(trifluoromethyl)pyrimidin-2-yl)piperidin-3-yl)cyclohexane-1,2-diamine bis-trifluoroacetate]"
2,34,"O=[N+]([O-])c1cnc(N2CCC[C@H](N[C@@H]3CCCC[C@H]3Nc3ncc(-c4ccccc4)o3)C2)nc1 [Example 77, (1R,2R)—N1-((S)-1-(5-Nitropyrimidin-2-yl)piperidin-3-yl)-N2-(5-phenyloxazol-2-yl)cyclohexane-1,2-diamine bis-trifluoroacetate]"
3,6,"N#Cc1ccc(N2CCC[C@H](N[C@@H]3CCCC[C@H]3Nc3ncc(-c4ccccc4)o3)C2)cc1F [Example 48, 2-Fluoro-4-((S)-3-((1R,2R)-2-(5-phenyloxazol-2-ylamino)cyclohexylamino)piperidin-1-yl)benzonitrile bis-trifluoroacetate]"

# Same assay, conditions: second TABLE 1, R2 is Phenyl-CF3; read-out: hY4 CAMP EC50
row,EC50 [nM],Compound
1,2,CNC(=O)Cc1cccc(-c2ccnc(N[C@@H]3CCCC[C@H]3N[C@H]3CCCN(c4ccc(C(F)(F)F)cc4)C3)c2)c1 [Example 175]
2,17,OCCCC#Cc1ccnc(N[C@@H]2CCCC[C@H]2N[C@H]2CCCN(c3ccc(C(F)(F)F)cc3)C2)c1 [Example 166]
3,27,Oc1ccc(-c2ccnc(N[C@@H]3CCCC[C@H]3N[C@H]3CCCN(c4ccc(C(F)(F)F)cc4)C3)c2)cc1 [Example 135]
4,905,FC(F)(F)c1ccc(N2CCC[C@H](N[C@@H]3CCCC[C@H]3Nc3cc(-c4cccc5c4CCNC5)ccn3)C2)cc1 [Example 145]
5,292,OC1(c2cccc(-c3ccnc(N[C@@H]4CCCC[C@H]4N[C@H]4CCCN(c5ccc(C(F)(F)F)cc5)C4)c3)c2)CC1 [Example 151]
6,31,OCCC#Cc1ccnc(N[C@@H]2CCCC[C@H]2N[C@H]2CCCN(c3ccc(C(F)(F)F)cc3)C2)c1 [Example 161]
7,227,CCCCNC(=O)c1cccc(-c2ccnc(N[C@@H]3CCCC[C@H]3N[C@H]3CCCN(c4ccc(C(F)(F)F)cc4)C3)c2)c1 [Example 141]
8,142,FC(F)(F)c1ccc(N2CCC[C@H](N[C@@H]3CCCC[C@H]3Nc3cc(-c4cn[nH]c4)ccn3)C2)cc1 [Example 171]
9,7,NC(=O)c1cccc(-c2ccnc(N[C@@H]3CCCC[C@H]3N[C@H]3C[C@@H]4C[C@H]3N(c3ccc(C(F)(F)F)cc3)C4)c2)c1 [Example 179]
